Test results reported in the METLIN SMRT retention time set (Domingo-Almenara et al. 2019).

Assay: gradient 5% acetonitrile 3 min, to 50% in 2 min, to 85% in 15 min, held 3 min, 100 µL/min
Conditions: column: Zorbax Extend-C18 2.1 x 50 mm; eluents: water / acetonitrile, 0.1% formic acid
Summary of the method: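 Values are retention times taken from adduct peaks that software picked and an analyst inspected. The pure standards were run as mixtures of ~100 molecules on HPLC linked to a quadrupole time-of-flight mass spectrometer, in positive and negative ionization mode. A Zorbax Extend-C18 column (2.1 × 50 mm, 1.8 μm) was used at 100 μL/min with water and acetonitrile, each including 0.1% formic acid.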
With CCOc1ccc(CC(=O)N2CCC3(CC2)Nc2cc(OC)ccc2-n2cccc23)cc1OCC the RP-LC retention time was 1030 s.
For Cn1c(=O)c2cc(C(=O)Nc3ccc(F)c(F)c3)cnc2n(-c2ccccc2)c1=O, the RP-LC retention time was 937 s.
Compound Cc1cccc(Cn2c(C)c(CNCc3ccco3)c(C(=O)O)c2C)c1 has an RP-LC retention time of 697 s.
With Cc1ccc(-c2nnc(CC(=O)NC3CCCC3)o2)cc1 the RP-LC retention time was 797 s.
With O=C(NC1CCCCC1)C1CCN(S(=O)(=O)c2ccc3[nH]c(=O)sc3c2)CC1 the RP-LC retention time was 765 s.
CCc1nnc2c(=O)n(CC(=O)NCc3ccc(F)cc3)c3cccnc3n12 showed an RP-LC retention time of 698 s.
With O=C(NCc1cccs1)C1CCCN(Cc2nc(-c3cccnc3)no2)C1 (stereo unspecified) the RP-LC retention time was 571 s.
Compound CCCN1C(=O)COc2cc(-c3noc(C(=O)NC4CCCC4)n3)ccc21 has an RP-LC retention time of 977 s.
In the case of Cc1ccccc1-c1noc(Cn2c(=O)n(Cc3ccc4c(c3)OCO4)c(=O)c3sccc32)n1, the RP-LC retention time is reported as 1110 s.
For Cc1nn2c(CNC(=O)C3CCC3)c(-c3ccccc3)nc2s1, the RP-LC retention time was 743 s.
Work on O=C(Cn1c(=O)c2cc(C3CC3)nn2c2ncccc21)Nc1cccc(F)c1 yielded an RP-LC retention time of 778 s.
Cc1[nH]c(C)c(S(=O)(=O)N2CCC(C(=O)NC3CCCCCCC3)CC2)c1C(=O)N1CCCC1 showed an RP-LC retention time of 745 s.
For Cc1cc(C)cc(NC(=O)N2CCC(n3cnc4ccc(F)cc4c3=O)CC2)c1, the RP-LC retention time was 861 s.
In the case of CCOC(=O)c1ccc(Nc2cc(C(=O)N3CCCCC3)nc3cc(OC)c(OC)cc23)cc1, the RP-LC retention time is reported as 737 s.
COc1ccc(CNC(=O)N2CCC(N3CCN(Cc4ccccc4)C(=O)C3=O)CC2)cc1 gave an RP-LC retention time of 702 s.
Cc1cccc2nnc(N3CCN(C(=O)c4cc5c(s4)CCCC5)CC3)n12 gave an RP-LC retention time of 605 s.
CCC(C)c1ccc(NC(=O)c2nn(C)cc2Cl)cc1 (stereo unspecified) showed an RP-LC retention time of 1100 s.
For Cc1noc(-c2cccc(OC3CN(C(=O)c4sccc4C)C3)c2)n1, the RP-LC retention time was 900 s.
O=C(NC1CCCCC1)C1CCCN(c2ccncc2)C1 (stereo unspecified) showed an RP-LC retention time of 604 s.
With O=C(NCc1cccnc1)c1ccc2c(c1)NC(=O)C1CCCCN21 (stereo unspecified) the RP-LC retention time was 585 s.
Work on CCC(=O)Nc1ccc2c(c1)nc(CN1CCOCC1)n2C(C)C yielded an RP-LC retention time of 587 s.
Compound CCc1nc(-c2cc(S(=O)(=O)NCC(=O)NC3CC3)c(C)s2)no1 has an RP-LC retention time of 740 s.
COc1ccc2nc(C(=O)NCc3ccc(C)cc3)cn2n1 showed an RP-LC retention time of 843 s.
CCOC(=O)c1c(C)[nH]c(CCC(=O)NCCc2cccs2)c1C gave an RP-LC retention time of 822 s.
With CCn1cnc(S(=O)(=O)N2CCCC(C(=O)NCc3ccccc3)C2)c1 (stereo unspecified) the RP-LC retention time was 768 s.
Compound COc1ccc(NC(=O)c2ccc(-c3ccc(-c4noc(C)n4)cc3C)cc2)cc1OCCN(C)C has an RP-LC retention time of 788 s.
Compound O=C(Nc1nnc(-c2ccco2)o1)c1c[nH]c2ccccc12 has an RP-LC retention time of 656 s.
COc1ccccc1NC(=O)CC(=O)Nc1ccc2nc3n(c(=O)c2c1)CCCCC3 showed an RP-LC retention time of 742 s.
O=C(N1CCN(S(=O)(=O)c2cccnc2)CC1)N1C[C@H]2C[C@H](C1)[C@H]1CCCC(=O)N1C2 showed an RP-LC retention time of 629 s.
In the case of CC(=O)N1CCC2(CC1)OC(=O)C(C)=C2C(=O)NC1CCN(Cc2ccccc2)CC1, the RP-LC retention time is reported as 581 s.
CCN1C(=O)c2c(C(=O)NCc3ccccc3F)ncn2CC1(C)C(=O)NC1CCCC1 (stereo unspecified) gave an RP-LC retention time of 741 s.
O=C(NCCCN1CCCC1=O)c1ccc2ncnc(N3CCCCC3)c2c1 showed an RP-LC retention time of 584 s.
With Cc1cc(NC(=O)Nc2cc(Cl)ccc2C)no1 the RP-LC retention time was 972 s.
With COc1ccc(-n2c(=O)c3sccc3n(Cc3nc(-c4cccc(OC)c4)no3)c2=O)cc1 the RP-LC retention time was 949 s.
Work on O=C(NC1CCN(c2cc(-c3ccccc3)[nH]n2)C1)c1ccc(Br)cc1 (stereo unspecified) yielded an RP-LC retention time of 752 s.
Work on Cn1cnnc1-c1nn(C)c2c1CN(C(=O)c1n[nH]c3c1CCCCCC3)CC2 yielded an RP-LC retention time of 650 s.
Nc1c2c(nc3c1CCC3)CCCC2 showed an RP-LC retention time of 624 s.
Work on O=C(NCCN1CCCC1)C1CCCN(c2ncnc3c2nc2n3CCCCC2)C1 (stereo unspecified) yielded an RP-LC retention time of 591 s.
Compound Cc1cc(N2CCOCC2)nc(N2CCN(S(=O)(=O)c3ccc(-c4ccccc4)cc3)CC2)n1 has an RP-LC retention time of 803 s.
For CCCc1ccc(S(=O)(=O)N(C)CC2CCOCC2)cc1, the RP-LC retention time was 1020 s.
O=C(NCCC1CCN(C(=O)Nc2cc(F)ccc2F)CC1)c1ccoc1 showed an RP-LC retention time of 758 s.
In the case of COc1ccc(C(=O)NC2CCN(C(=O)c3cc(-c4ccc(OC)cc4)n[nH]3)CC2)cc1, the RP-LC retention time is reported as 729 s.
Work on CSc1cccc(NC(=O)Nc2cccc(-c3ccc(N4CCCC4)nn3)c2)c1 yielded an RP-LC retention time of 712 s.
Compound Fc1cccc(N2CC3(CCNCC3)C2c2ccccc2)c1 (stereo unspecified) has an RP-LC retention time of 721 s.
For CCc1nc2cc(-c3noc(-c4c(F)cccc4Cl)n3)ccc2o1, the RP-LC retention time was 1190 s.
Cc1sc(-c2nnc(C3CC3)o2)cc1NC(=O)Cc1ccc(F)cc1 gave an RP-LC retention time of 956 s.
